Experimental findings from patent publication EP1325735A2, “Use of L-arginine derivatives as photo-protecting agents and enhancing melanic response in cosmetic compositions” (EXSYMOL S.A.M., priority 2002, dated 2003) are described below.

Test [1] can be described thus: Hydroxyl radical OH• scavenging, deoxyribose protection test (Halliwell method). Particulars: rate constant of S on OH•; mean (± SD) of 3 independent experiments. The source says: Le test, réalisé selon la méthode décrite par B. Halliwell et coll. […] Le pouvoir protecteur est déduit de la comparaison des cinétiques de réaction, exprimées par une constante de vitesse de S sur OH• (piégeage de OH•).
Les constantes de vitesse correspondent à la valeur moyenne (± D.S.) calculée à partir de 3 expériences indépendantes

In test [2] the test system is co-culture in vitro de mélanocytes et de kératinocytes. Description: In vitro melanocyte/keratinocyte co-culture model of the "mélano-épidermique" unit: melanic response after UV. The class given is cell-based. Details: unit not given here. The note with it: for réponse mélanique: co-culture + MdC "ARG-free" irradiée par UVB: ARG-free medium (insufficient physiological arginine); for réponse mélanique: co-culture + MdC "ARG-free" irradiée par UVB / réponse mélanique: co-culture + MdC "ARG = 84mg/L" irradiée par UVB: UVB irradiated; for réponse mélanique: co-culture + MdC "ARG = 84mg/L" irradiée par UVB / réponse mélanique: co-culture + MdC "ARG = 84mg/L" sans irradiation: standard medium with supra-physiological arginine; for réponse mélanique: co-culture + MdC "ARG = 84mg/L" sans irradiation: no irradiation. The text has this:
Test 2 : démonstration de l'effet des dérivés d'arginine sur l'unité "mélano-épidermique" et la réponse mélanique
Nous avons mis au point un modèle expérimental reproduisant l'unité "mélano-épidermique", et qui permet de mettre en évidence les effets d'un apport exogène de dérivés d'arginine sur la réponse mélanique à la suite de rayonnements U.V. (effet direct sur les mélanocytes et indirect via la "communication cellulaire" entre kératinocytes et mélanocytes). Il s'agit d'un modèle de co-culture in vitro de mélanocytes et de kératinocytes (voir représentation schématique du modèle), possédant un milieu de culture (MdC) particulier. [drawing]
Le fond poreux de la chambre supérieure permet le passage, d'un compartiment à l'autre, des facteurs endogènes sécrétés par les cellules (NO) et la substance (S).

Square brackets hold non-standard residues; d marks the D form. Peptide text beside a SMILES is read from it. ξ: configuration not given here. ξM = CSCCC(N)C(=O)O

With `N=C(N)NCCC[C@H](N)C(=O)O` [L-arginine], the “constante de vitesse de piégeage” value in test [1] is 1,5 (±0,2)x10^9 M^-1.S^-1.

Take `N[C@@H](Cc1c[nH]cn1)C(=O)O` [L-histidine, reference compound]: the “constante de vitesse de piégeage” value in test [1] was 2,5 (±0,2)x10^9 M^-1.S^-1.

For `CCOC(=O)[C@H](CCCNC(=N)N)NC(=O)C(CCSC)NC(C)=O` (stereo partly drawn) [NAc-(D,L)-MET-L-ARG-OEt, N-acetyl-(D ou L)methionyl-L-arginine ethyl ester] (Ac-[ξM]-Arg-OEt), the “constante de vitesse de piégeage” value in test [1] is reported as 0,7 (±0,2)x10^10 M^-1.S^-1.

Take `CCOC(=O)[C@@H](NC(=O)[C@H](CCCNC(=N)N)NC(C)=O)[C@@H](C)CC` [NAc-L-ARG-L-ILE-OEt, N-acetyl-L-arginyl-(D ou L)-isoleucine ethyl ester] (Ac-Arg-Ile-OEt): the “constante de vitesse de piégeage” value in test [1] is recorded as 6,1 (±0,4)x10^9 M^-1.S^-1.

For `CCOC(=O)[C@H](CCCNC(=N)N)NC(C)=O` [NAc-L-ARG-OEt, N-acetyl-L-arginine ethyl ester], the “constante de vitesse de piégeage” value in test [1] is given as 5,2 (±0,2)x10^9 M^-1.S^-1. Also, the “réponse mélanique: co-culture + MdC "ARG-free" irradiée par UVB” value is listed as 30,7 in test [2] (substance 0,12 mM), 37,5 in test [2] (substance 0,24 mM) and 43,8 in test [2] (substance 0,48 mM). Also, the “réponse mélanique: co-culture + MdC "ARG = 84mg/L" irradiée par UVB” value was 39,5 in test [2] (substance 0,12 mM), 42,6 in test [2] (substance 0,24 mM) and 38,4 in test [2] (substance 0,48 mM). Moreover, the “réponse mélanique: co-culture + MdC "ARG = 84mg/L" sans irradiation” value in test [2] (substance 0,12 mM) was 23,1; in test [2] (substance 0,24 mM) it was 20,9; in test [2] (substance 0,48 mM) it was 24,4.

Take `CCOC(=O)[C@H](CCCNC(=N)N)NC(=O)[C@H](Cc1c[nH]cn1)NC(C)=O` [NAc-L-HIS-L-ARG-OEt, N-acetyl-(D ou L)-histidyl-L-arginine ethyl ester] (Ac-His-Arg-OEt): the “constante de vitesse de piégeage” value in test [1] is on record as 9,0 (±0,2)x10^9 M^-1.S^-1. Moreover, the results for the “réponse mélanique: co-culture + MdC "ARG-free" irradiée par UVB” value in test [2] (substance 0,12 mM), in test [2] (substance 0,24 mM) and in test [2] (substance 0,48 mM) were 38,8, 41,0 and 42,5, respectively. Also, the “réponse mélanique: co-culture + MdC "ARG = 84mg/L" irradiée par UVB” value in test [2] (substance 0,12 mM) is 41,6; in test [2] (substance 0,24 mM), 36,2; in test [2] (substance 0,48 mM), 40,7. Besides, the “réponse mélanique: co-culture + MdC "ARG = 84mg/L" sans irradiation” value in test [2] (substance 0,12 mM) is recorded as 22,7; in test [2] (substance 0,24 mM), 22,5; in test [2] (substance 0,48 mM), 18,8.

Consider `CCOC(=O)[C@H](CCCNC(=N)N)NC(=O)[C@H](Cc1ccc(O)cc1)NC(C)=O` [NAc-L-TYR-L-ARG-OEt, N-acetyl-L-tyrosyl-L-arginine ethyl ester], for which, in test [1], the “constante de vitesse de piégeage” value is 8,1 (±0,3)x10^9 M^-1.S^-1.
